In US9616129B2, “Compositions and methods for potentiating immune response, enhancing immunotherapy, and increasing vaccine potency” (Nitor Therapeutics, priority 2013, dated 2017):

Columns and labels:
human TLR3 = biological target: T1, human TLR3 (Homo sapiens, UniProt O15455); experiment: TLR ligand screening, NF-κB SEAP reporter in HEK293 cells expressing TLR3; assay type: cell-based; conditions: one concentration: NTR001 10 uM, Inosine 100 uM; FIG. 2
T1 construct: expressed in transfected cells; host or cells: HEK293
T1 sequence (O15455 24-904): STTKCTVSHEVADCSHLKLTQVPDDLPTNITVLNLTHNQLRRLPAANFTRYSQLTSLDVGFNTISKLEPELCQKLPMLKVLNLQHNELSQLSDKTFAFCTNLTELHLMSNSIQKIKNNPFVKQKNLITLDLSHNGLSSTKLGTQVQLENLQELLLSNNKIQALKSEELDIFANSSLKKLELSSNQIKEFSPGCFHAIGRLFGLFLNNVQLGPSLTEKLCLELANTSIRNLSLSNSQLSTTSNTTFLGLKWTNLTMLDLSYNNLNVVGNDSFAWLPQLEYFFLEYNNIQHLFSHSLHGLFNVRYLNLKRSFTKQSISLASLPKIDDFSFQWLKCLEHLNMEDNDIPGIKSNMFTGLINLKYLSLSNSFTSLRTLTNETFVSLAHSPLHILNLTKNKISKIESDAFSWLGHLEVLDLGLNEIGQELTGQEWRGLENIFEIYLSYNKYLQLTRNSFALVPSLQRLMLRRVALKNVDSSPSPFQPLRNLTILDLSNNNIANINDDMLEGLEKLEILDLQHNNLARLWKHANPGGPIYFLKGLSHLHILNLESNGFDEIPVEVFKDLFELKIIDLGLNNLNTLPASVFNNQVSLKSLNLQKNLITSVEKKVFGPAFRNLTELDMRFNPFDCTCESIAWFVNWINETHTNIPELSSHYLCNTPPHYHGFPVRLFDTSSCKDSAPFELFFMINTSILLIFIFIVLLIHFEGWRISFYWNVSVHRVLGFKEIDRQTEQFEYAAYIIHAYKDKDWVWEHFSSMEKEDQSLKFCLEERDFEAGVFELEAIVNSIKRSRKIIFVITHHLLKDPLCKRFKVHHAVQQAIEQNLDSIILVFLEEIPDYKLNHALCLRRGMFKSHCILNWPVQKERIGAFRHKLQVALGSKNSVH
Method: (§1) TLR stimulation is tested by assessing NF-κB activation in HEK293 cells expressing a given TLR. The Secreted Embryonic Alkaline Phosphatase (SEAP) reporter is under the control of a promoter inducible by the transcription factor NF-κB. This reporter gene allows the monitoring of signaling through the TLR, based on the activation of NF-κB. The compounds are evaluated at one concentration and compared to control ligands. This step is performed in triplicate.

human TLR5 = biological target: T2, human TLR5 (Homo sapiens, UniProt O60602); experiment: TLR ligand screening, NF-κB SEAP reporter in HEK293 cells expressing TLR5; assay type: cell-based; conditions: one concentration: NTR001 10 uM, Inosine 100 uM; FIG. 2
T2 construct: expressed in transfected cells; host or cells: HEK293
T2 sequence (O60602 21-858): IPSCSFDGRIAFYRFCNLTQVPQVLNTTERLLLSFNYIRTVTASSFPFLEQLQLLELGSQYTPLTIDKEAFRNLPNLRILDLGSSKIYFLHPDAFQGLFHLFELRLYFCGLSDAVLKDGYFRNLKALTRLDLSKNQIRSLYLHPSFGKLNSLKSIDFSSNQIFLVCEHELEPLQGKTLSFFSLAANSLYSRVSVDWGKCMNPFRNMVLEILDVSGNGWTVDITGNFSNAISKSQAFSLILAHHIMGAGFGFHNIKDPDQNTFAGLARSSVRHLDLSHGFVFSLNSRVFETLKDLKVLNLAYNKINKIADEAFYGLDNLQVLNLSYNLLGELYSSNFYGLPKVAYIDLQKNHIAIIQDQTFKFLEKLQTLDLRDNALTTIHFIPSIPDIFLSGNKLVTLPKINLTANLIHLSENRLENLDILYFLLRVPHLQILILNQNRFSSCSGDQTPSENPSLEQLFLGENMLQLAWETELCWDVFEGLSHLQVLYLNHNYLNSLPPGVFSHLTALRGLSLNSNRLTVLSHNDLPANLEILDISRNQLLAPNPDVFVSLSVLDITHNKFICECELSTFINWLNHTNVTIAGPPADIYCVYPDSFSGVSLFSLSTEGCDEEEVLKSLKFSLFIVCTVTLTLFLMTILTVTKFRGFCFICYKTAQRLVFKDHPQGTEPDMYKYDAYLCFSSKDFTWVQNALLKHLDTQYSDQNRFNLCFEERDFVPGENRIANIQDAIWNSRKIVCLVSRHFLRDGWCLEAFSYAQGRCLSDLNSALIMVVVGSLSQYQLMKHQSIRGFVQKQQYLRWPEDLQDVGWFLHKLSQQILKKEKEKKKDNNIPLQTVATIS
Method: as §1

human TLR8 = biological target: T3, human TLR8 (Homo sapiens, UniProt Q9NR97); experiment: TLR ligand screening, NF-κB SEAP reporter in HEK293 cells expressing TLR8; assay type: cell-based; conditions: one concentration: NTR001 10 uM, Inosine 100 uM; FIG. 2
T3 construct: expressed in transfected cells; host or cells: HEK293
T3 sequence (Q9NR97 27-1041): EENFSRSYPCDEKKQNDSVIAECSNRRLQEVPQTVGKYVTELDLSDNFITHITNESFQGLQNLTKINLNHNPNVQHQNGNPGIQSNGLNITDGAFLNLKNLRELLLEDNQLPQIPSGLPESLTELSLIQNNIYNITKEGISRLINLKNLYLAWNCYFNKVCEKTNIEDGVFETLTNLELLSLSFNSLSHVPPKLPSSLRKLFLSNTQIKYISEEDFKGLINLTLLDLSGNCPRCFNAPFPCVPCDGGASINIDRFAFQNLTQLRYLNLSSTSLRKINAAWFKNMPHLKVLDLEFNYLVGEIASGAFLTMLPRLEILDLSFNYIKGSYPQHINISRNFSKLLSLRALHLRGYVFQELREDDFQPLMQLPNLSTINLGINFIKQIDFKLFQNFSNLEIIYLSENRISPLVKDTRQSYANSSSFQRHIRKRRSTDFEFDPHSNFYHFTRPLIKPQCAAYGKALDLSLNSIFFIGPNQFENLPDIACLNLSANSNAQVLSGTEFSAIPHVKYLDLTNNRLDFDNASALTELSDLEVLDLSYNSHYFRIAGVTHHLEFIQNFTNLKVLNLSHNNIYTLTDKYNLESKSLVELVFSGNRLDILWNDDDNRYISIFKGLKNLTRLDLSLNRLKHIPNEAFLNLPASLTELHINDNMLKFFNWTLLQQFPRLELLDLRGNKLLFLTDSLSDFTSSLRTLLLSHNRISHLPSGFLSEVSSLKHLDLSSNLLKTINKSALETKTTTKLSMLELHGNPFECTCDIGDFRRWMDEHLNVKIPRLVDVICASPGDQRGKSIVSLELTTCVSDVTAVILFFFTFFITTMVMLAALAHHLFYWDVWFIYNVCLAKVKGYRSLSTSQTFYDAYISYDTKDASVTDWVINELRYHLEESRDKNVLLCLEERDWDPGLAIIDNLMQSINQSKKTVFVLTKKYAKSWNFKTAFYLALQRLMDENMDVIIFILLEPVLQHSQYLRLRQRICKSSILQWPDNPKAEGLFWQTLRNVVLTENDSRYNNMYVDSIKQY
Method: as §1

tetanus toxoid vaccine = experiment: Tetanus toxoid vaccine efficacy study (adjuvant) in mice; assay type: in vivo; conditions: compared to vehicle treated group
Method: Tetanus toxoid (TT) was used to vaccinate mice thrice, two weeks apart. Mice were treated by oral administration of compounds NTR001 and NTR002 and serum was collected at various time points for antibody titer and interferon-g analysis. Mice in Groups 2-6 (Table 2) are vaccinated subcutaneously with 0.1 ml tetanus toxoid vaccine on DAYS 0, 14 and 28. Mice in Group 1 (Table 1) received no vaccine. Antibody titers for DAYS 38 are determined by ELISA using tetanus toxoid coated microtiter plates and anti-mouse conjugate. Sera from DAY 30 are assayed by ELISA for interferon-g.

B16 tumors = experiment: Syngeneic mouse melanoma model; assay type: in vivo, C57BL/6 mice
Method: Cancer cells were injected subcutaneously in right flank of each mouse, 1×10^4 cells in 0.1 ml PBS with 20% Matrigel. Treatment with the NTR001 was initiated on day 6 after injection of tumor cells. Tumor volume and survival were recorded every 3-4 days.

[1] = tested on: L. monocytogenes (ATCC Strain35152, hemolytic substrain); experiment: Mouse model of L. monocytogenes infection; assay type: in vivo; conditions: Balb/c mice infected i.v. with 1×10^6 CFU; treatments per Table 3; FIGS. 7 and 9

OC[C@H]1O[C@@H](n2cnc3c(O)ncnc32)[C@H](O)[C@@H]1O [Inosine]
stimulatory effect on human TLR3 (NF-κB activation) (human TLR3): do not exhibit a stimulatory effect | stimulatory effect on human TLR5 (NF-κB activation) (human TLR5): do not exhibit a stimulatory effect | stimulatory effect on human TLR8 (NF-κB activation) (human TLR8): do not exhibit a stimulatory effect

O=c1[nH]cnc2c([C@@H]3N[C@H](CO)[C@@H](O)[C@H]3O)c[nH]c12 [NTR001, 7-[(2S,3S,4R,5R)-3,4-dihydroxy-5-(hydroxymethyl)-2-pyrrolidinyl]-1,5-dihydro-4H-pyrrolo[3,2-d]pyrimidin-4-one]
stimulatory effect on human TLR3 (NF-κB activation) (human TLR3): do not exhibit a stimulatory effect | stimulatory effect on human TLR5 (NF-κB activation) (human TLR5): do not exhibit a stimulatory effect | stimulatory effect on human TLR8 (NF-κB activation) (human TLR8): do not exhibit a stimulatory effect | serum interferon-g (tetanus toxoid vaccine; day 30, ELISA, high dose group 60 mg/kg p.o., FIG. 4): elevated | serum tetanus toxoid antibody titers (tetanus toxoid vaccine; day 38, ELISA, p.o. 30 mg/kg (6 days of treatment) and 60 mg/kg (3 days of treatment), FIG. 3): significantly elevated | tumor volume (B16 tumors; B16 melanoma, C57BL/6 mice, treatment from day 6, FIG. 5): significant decrease | survival (B16 tumors; NTR001 as single agent (30 mg/kg PO week on/off or 5 mg/kg drinking water), FIG. 6): 0-20% | weight loss [1]: significant decrease
